In patent US20230202989A1, “COMPOUNDS” (JANSSEN PHARMACEUTICA NV, priority 2020, published 2023) one finds IC50 and EC50 data, which are given here for 26 compounds.

A word on the IC50: it is the concentration that gives 50% inhibition. The EC50 is the concentration that produces a half-maximal response. A higher EC50 goes with a need for much substance.

Where two headings read alike, the source gives them in different places.

One test deals with IL-1β. In words: PBMC assay: inhibition of IL-1β release after LPS stimulation (MSD). The conditions noted are these: human PBMCs, 100 ng/ml LPS for 6 hrs, MSD, 96 well plates, read-out: IL1β IC50. In kind it is cell-based. In a few lines: (§1)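 TNF (EC50) and IL-1β (IC50) were quantified by MSD in supernatants after 6 h stimulation with 100 ng/ml LPS. Thawed healthy-donor PBMCs, 7.5×10^4 per well, were exposed to 1:3 compound dilutions for 30 min beforehand at 37 °C.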

A further test concerns TNF. The test can be described thus: PBMC assay: TNF cytokine levels after LPS stimulation (MSD). It counts as cell-based. The conditions noted are these: human PBMCs, 100 ng/ml LPS for 6 hrs. In outline:
as §1

For the compound `CC(O)c1nn(CC(=O)Nc2ccncn2)c(=O)c2ccc(C(F)(F)F)cc12` (stereo not shown) [Final Cpd X103], the IC50 in the test on IL-1β (Homo sapiens, PBMC, 6 h) came out at 1320 nM. The compound further yielded an EC50 in the test on TNF (Homo sapiens, PBMC, 6 h) of more than 20000 nM.
For `CC(C)c1nn(CC(=O)N[C@H]2CN(C3COC3)CC[C@H]2O)c(=O)c2ccc(C(F)(F)F)cc12` [Final Cpd X104] the same measures were 1410 nM and more than 20000 nM.
For `CO[C@H]1C[C@H](NC(=O)Cn2nc(C(C)C)c3cc(C(F)(F)F)ccc3c2=O)C1` [Final Cpd X105] the same measures were 1520 nM and more than 20000 nM.
Regarding `CC(C)c1nn(CC(=O)N[C@@H]2CCc3nncn3C2)c(=O)c2ccc(C(F)(F)F)cc12` [Final Cpd X106], the IC50 in the test with IL-1β (Homo sapiens, PBMC, 6 h) turned out to be 1610 nM. Further, in the test on TNF (Homo sapiens, PBMC, 6 h), the EC50 was more than 20000 nM.
With `COC(C)c1nn(CC(=O)N[C@H]2C[C@@](C)(O)C2)c(=O)c2ccc(C(F)(F)F)cc12` (stereo partly shown) [Final Cpd X107], in the test on IL-1β (Homo sapiens, PBMC, 6 h), the IC50 is 1610 nM. For the same compound, the EC50 in the test with TNF (Homo sapiens, PBMC, 6 h) was more than 20000 nM.
As to `CC(C)c1nn(CC(=O)N[C@H]2C[C@@H](C(C)(C)O)C2)c(=O)c2ccc(C(F)(F)F)cc12` [Final Cpd X108], the IC50 in the test on IL-1β (Homo sapiens, PBMC, 6 h) turned out to be 1630 nM. In the test with TNF (Homo sapiens, PBMC, 6 h), this compound registered an EC50 of more than 20000 nM.
Consider `CC(C)c1nn(CC(=O)N[C@@H]2CC[C@@](C)(O)C2)c(=O)c2ccc(C(F)(F)F)cc12` [Final Cpd X110], for which the IC50 with IL-1β (Homo sapiens, PBMC, 6 h) amounted to 1640 nM. In the test with TNF (Homo sapiens, PBMC, 6 h), the EC50 was more than 20000 nM.
As to `COC(C)c1nn(CC(=O)Nc2ccncn2)c(=O)c2ccc(C(F)(F)F)cc12` (stereo not shown) [Final Cpd X111], the IC50 with IL-1β (Homo sapiens, PBMC, 6 h) turned out to be 1700 nM. In the test on TNF (Homo sapiens, PBMC, 6 h), this compound showed an EC50 of 7930 nM.
For `CC(C)c1nn(CC(=O)Nc2ccn(C)c(=O)n2)c(=O)c2ccc(C(F)(F)F)cc12` [Final Cpd X112], in the test on IL-1β (Homo sapiens, PBMC, 6 h), the IC50 is 1730 nM. The compound further yielded an EC50 in the test with TNF (Homo sapiens, PBMC, 6 h) of more than 20000 nM.
The matching figures for `CC(C)c1nn(CC(=O)Nc2ccc3c(c2)nnn3C)c(=O)c2ccc(C(F)(F)F)cc12` [Final Cpd X113]: 1860 nM and more than 20000 nM.
As to `CC(C)c1nn(CC(=O)Nc2ccc3cnn(C)c3c2)c(=O)c2ccc(C(F)(F)F)cc12` [Final Cpd X114], the IC50 in the test with IL-1β (Homo sapiens, PBMC, 6 h) is 1940 nM. The EC50 in the test on TNF (Homo sapiens, PBMC, 6 h) is more than 20000 nM.
As to `CC(C)c1nn(CC(=O)N[C@@H]2CC[C@@H]2O)c(=O)c2ccc(C(F)(F)F)cc12` [Final Cpd X115], the IC50 in the test on IL-1β came out at 2020 nM. Moreover, the EC50 in the test on TNF was more than 20000 nM.
`CO[C@H]1C[C@@H](NC(=O)Cn2nc(C(C)C)c3cc(C(F)(F)F)ccc3c2=O)C1` [Final Cpd X116]: the IC50 in the test on IL-1β (Homo sapiens, PBMC, 6 h) is 2090 nM. Further, the concentration for a half-maximal effect (EC50) in the test on TNF (Homo sapiens, PBMC, 6 h) is more than 20000 nM.
For `CCN1C[C@H](NC(=O)Cn2nc(C(C)C)c3cc(C(F)(F)F)ccc3c2=O)CC(F)(F)C1` [Final Cpd X117] the same measures were 2110 nM and more than 20000 nM.
The matching figures for `CC(C)c1nn(CC(=O)Nc2ccc3nc(C(F)F)cn3n2)c(=O)c2ccc(C(F)(F)F)cc12` [Final Cpd X118]: 2130 nM and more than 20000 nM.
The matching figures for `CC(C)c1nn(CC(=O)N[C@H]2C[C@@](O)(C(F)(F)F)C2)c(=O)c2ccc(C(F)(F)F)cc12` [Final Cpd X119]: 2130 nM and more than 20000 nM.
On to `CC(C)c1nn(CC(=O)Nc2cc(Cl)c(=O)n(C(F)F)c2)c(=O)c2ccc(C(F)(F)F)cc12` [Final Cpd X120], for which, in the test on IL-1β (Homo sapiens, PBMC, 6 h), the IC50 was 2570 nM. In the test with TNF (Homo sapiens, PBMC, 6 h), this compound had an EC50 of more than 20000 nM.
`CC(C)c1nn(CC(=O)NC2(C)CC(O)C2)c(=O)c2ccc(C(F)(F)F)cc12` (stereo not shown) [Final Cpd X121]: the IC50 in the test with IL-1β (Homo sapiens, PBMC, 6 h) amounted to 2650 nM. The EC50 in the test on TNF (Homo sapiens, PBMC, 6 h) was more than 20000 nM.
For `CC(C)c1nn(CC(=O)N[C@H]2C[C@@H](O)CN(C)C2)c(=O)c2ccc(C(F)(F)F)cc12` [Final Cpd X122] the same measures were 2680 nM and more than 20000 nM.
`CC(C)c1nn(CC(=O)Nc2ccc3cn(C)nc3c2)c(=O)c2ccc(C(F)(F)F)cc12` [Final Cpd X123]: the IC50 in the test with IL-1β (Homo sapiens, PBMC, 6 h) came to 2700 nM. Besides, the EC50 in the test on TNF (Homo sapiens, PBMC, 6 h) was more than 20000 nM.
In the case of `CC1(c2nn(CC(=O)Nc3ccc4nncn4c3)c(=O)c3ccc(C(F)(F)F)cc23)CC1` [Final Cpd X125], the IC50 with IL-1β (Homo sapiens, PBMC, 6 h) was 2880 nM. In the test on TNF (Homo sapiens, PBMC, 6 h), this compound displayed an EC50 of more than 20000 nM.
The matching figures for `CC(C)c1nn(CC(=O)NC2(C)CC(F)(F)C2)c(=O)c2ccc(C(F)(F)F)cc12` [Final Cpd X126]: 2940 nM and more than 20000 nM.
The matching figures for `CC(C)c1nn(CC(=O)Nc2ccn3ccnc3n2)c(=O)c2ccc(C(F)(F)F)cc12` [Final Cpd X127]: 2940 nM and more than 20000 nM.
With `CC(C)c1nn(CC(=O)NC2CCC(C)(C)OC2)c(=O)c2ccc(C(F)(F)F)cc12` (stereo not shown) [Final Cpd X128], the IC50 in the test with IL-1β (Homo sapiens, PBMC, 6 h) worked out at 2950 nM. The EC50 with TNF (Homo sapiens, PBMC, 6 h) is more than 20000 nM.
Regarding `CO[C@H]1CC[C@@H](NC(=O)Cn2nc(C(C)C)c3cc(C(F)(F)F)ccc3c2=O)CC1` [Final Cpd X131], the IC50 with IL-1β (Homo sapiens, PBMC, 6 h) was 3090 nM. This compound also registered an EC50 in the test on TNF (Homo sapiens, PBMC, 6 h) of more than 20000 nM.
The matching figures for `CC(C)c1nn(CC(=O)Nc2cc(Br)c3ncnn3c2)c(=O)c2ccc(C(F)(F)F)cc12` [Final Cpd X132]: 3260 nM and more than 20000 nM.
